Measurements taken from ChEMBL document CHEMBL3044888, “Fungicidal activity of indole derivatives against some plant pathogenic fungi” (J Pestic Sci, 2010).
In brackets after ≈: the same amount, converted by molar mass.

Assays:
Format in all cases: functional, organism-based
Fusarium culmorum = assay: Fungicidal activity against Fusarium culmorum assessed as inhibition of hyphal growth by radial growth test
[1] = system: Globisporangium debaryanum; assay: Fungicidal activity against Pythium debaryanum assessed as inhibition of hyphal growth by radial growth test
Rhizoctonia solani = assay: Fungicidal activity against Rhizoctonia solani assessed as inhibition of hyphal growth by radial growth test
Macrophomina phaseolina = assay: Fungicidal activity against Macrophomina phaseoli assessed as inhibition of hyphal growth by radial growth test

## O=C(c1ccccc1)n1c(-c2ccccc2)cc2ccccc21
Fusarium culmorum
  IC50: 99.9 µg/mL (≈ 336 µM)
[1]
  IC50: 81 µg/mL (≈ 272 µM)
Rhizoctonia solani
  IC50: 122 µg/mL (≈ 411 µM)
Macrophomina phaseolina
  IC50: 355 µg/mL (≈ 1190 µM)

## O=C(O)Cc1cn(C(=O)c2ccccc2)c2ccccc12
Fusarium culmorum
  IC50: 523 µg/mL (≈ 1870 µM)
[1]
  IC50: 171 µg/mL (≈ 612 µM)
Rhizoctonia solani
  IC50: 1240 µg/mL (≈ 4450 µM)
Macrophomina phaseolina
  IC50: 572 µg/mL (≈ 2050 µM)

## CC(=O)n1cc(CCCC(=O)O)c2ccccc21
Fusarium culmorum
  IC50: 26.6 µg/mL (≈ 108 µM)
[1]
  IC50: 19 µg/mL (≈ 77.5 µM)
Rhizoctonia solani
  IC50: 117 µg/mL (≈ 477 µM)
Macrophomina phaseolina
  IC50: 59 µg/mL (≈ 241 µM)

## O=C(O)Cc1c[nH]c2ccccc12 [INDOLE-3-ACETIC ACID]
Fusarium culmorum
  IC50: 420 µg/mL (≈ 2400 µM)
[1]
  IC50: 301 µg/mL (≈ 1720 µM)
Rhizoctonia solani
  IC50: 1010 µg/mL (≈ 5760 µM)
Macrophomina phaseolina
  IC50: 807 µg/mL (≈ 4610 µM)

## O=C(O)CCCc1c[nH]c2ccccc12
Fusarium culmorum
  IC50: 576 µg/mL (≈ 2830 µM)
[1]
  IC50: 249 µg/mL (≈ 1230 µM)
Rhizoctonia solani
  IC50: 644 µg/mL (≈ 3170 µM)
Macrophomina phaseolina
  IC50: 699 µg/mL (≈ 3440 µM)

## COCC(=O)N(c1c(C)cccc1C)C(C)C(=O)OC (stereo not drawn) [METALAXYL]
Fusarium culmorum
  IC50: 192 µg/mL (≈ 687 µM)
[1]
  IC50: 211 µg/mL (≈ 755 µM)
Rhizoctonia solani
  IC50: 231 µg/mL (≈ 827 µM)
Macrophomina phaseolina
  IC50: 173 µg/mL (≈ 619 µM)

## O=C(O)CCCc1cn(C(=O)c2ccccc2)c2ccccc12
Fusarium culmorum
  IC50: 513 µg/mL (≈ 1670 µM)
[1]
  IC50: 488 µg/mL (≈ 1590 µM)
Rhizoctonia solani
  IC50: 663 µg/mL (≈ 2160 µM)
Macrophomina phaseolina
  IC50: 448 µg/mL (≈ 1460 µM)
